Laboratory results published in ChEMBL document CHEMBL3085634, “Identification of elaiophylin derivatives from the marine-derived actinomycete Streptomyces sp. 7-145 using PCR-based screening” (2013).
In brackets after ≈: the same amount, converted by molar mass.

Assays:
Type in all cases: functional
Morganella morganii = experiment: Antibacterial activity against beta-lactamase producing Morganella morganii ATCC 25830 assessed as growth inhibition after 18 hrs by agar dilution method; details: ATCC 25830, 18 h
Pseudomonas aeruginosa = experiment: Antibacterial activity against beta-lactamase producing Pseudomonas aeruginosa ATCC 27853 assessed as growth inhibition after 18 hrs by agar dilution method; details: ATCC 27853, 18 h
Klebsiella pneumoniae [1] = experiment: Antibacterial activity against New Delhi metallo-beta-lactamase 1 producing Klebsiella pneumoniae ATCC BAA-2146 assessed as growth inhibition after 18 hrs by agar dilution method; details: ATCC BAA-2146, 18 h
Klebsiella pneumoniae [2] = experiment: Antibacterial activity against extended spectrum beta-lactamase producing Klebsiella pneumoniae ATCC 700603 assessed as growth inhibition after 18 hrs by agar dilution method; details: ATCC 700603, 18 h
Escherichia coli [3] = experiment: Antibacterial activity against beta-lactamase producing Escherichia coli 09-20 assessed as growth inhibition after 18 hrs by agar dilution method; details: 09-20, 18 h
Escherichia coli [4] = experiment: Antibacterial activity against extended spectrum beta-lactamase producing Escherichia coli 09-1 assessed as growth inhibition after 18 hrs by agar dilution method; details: 09-1, 18 h
Enterococcus faecium [5] = experiment: Antibacterial activity against vancomycin-sensitive Enterococcus faecium 09-10 assessed as growth inhibition after 18 hrs by agar dilution method; details: 09-10, 18 h
Enterococcus faecium [6] = experiment: Antibacterial activity against vancomycin-resistant Enterococcus faecium ATCC 700221 assessed as growth inhibition after 18 hrs by agar dilution method; details: ATCC 700221, 18 h
Enterococcus faecalis [7] = experiment: Antibacterial activity against vancomycin-resistant Enterococcus faecalis ATCC 51299 assessed as growth inhibition after 18 hrs by agar dilution method; details: ATCC 51299, 18 h
Enterococcus faecalis [8] = experiment: Antibacterial activity against vancomycin-sensitive Enterococcus faecalis 09-8 assessed as growth inhibition after 18 hrs by agar dilution method; details: 09-8, 18 h
Enterococcus faecalis [9] = experiment: Antibacterial activity against vancomycin-sensitive Enterococcus faecalis ATCC 29212 assessed as growth inhibition after 18 hrs by agar dilution method; details: ATCC 29212, 18 h
[10] = tested on: Staphylococcus epidermidis; experiment: Antibacterial activity against methicillin-resistant Staphylococcus epidermidis 09-3 assessed as growth inhibition after 18 hrs by agar dilution method; details: 09-3, 18 h
Staphylococcus aureus [11] = experiment: Antibacterial activity against methicillin-resistant Staphylococcus aureus R6101 assessed as growth inhibition after 18 hrs by agar dilution method; details: R6101, 18 h
Staphylococcus aureus [12] = experiment: Antibacterial activity against methicillin-resistant Staphylococcus aureus 09-13 assessed as growth inhibition after 18 hrs by agar dilution method; details: 09-13, 18 h
Staphylococcus aureus [13] = experiment: Antibacterial activity against methicillin-resistant Staphylococcus aureus ATCC 33591 assessed as growth inhibition after 18 hrs by agar dilution method; details: ATCC 33591, 18 h
Staphylococcus aureus [14] = experiment: Antibacterial activity against methicillin-sensitive Staphylococcus aureus 09-6 assessed as growth inhibition after 18 hrs by agar dilution method; details: 09-6, 18 h
Staphylococcus aureus [15] = experiment: Antibacterial activity against methicillin-sensitive Staphylococcus aureus ATCC 29213 assessed as growth inhibition after 18 hrs by agar dilution method; details: ATCC 29213, 18 h
[16] = tested on: Staphylococcus epidermidis; experiment: Antibacterial activity against methicillin-sensitive Staphylococcus epidermidis ATCC 12228 assessed as growth inhibition after 18 hrs by agar dilution method; details: ATCC 12228, 18 h
Micrococcus luteus = experiment: Antibacterial activity against apramycin-resistant Micrococcus luteus ATCC 10240 assessed as growth inhibition after 18 hrs by agar dilution method; details: ATCC 10240, 18 h
Enterococcus faecalis [17] = experiment: Antibacterial activity against vancomycin-resistant Enterococcus faecalis R6512 assessed as growth inhibition after 18 hrs by agar dilution method; details: R6512, 18 h
Enterococcus faecalis [18] = experiment: Antibacterial activity against vancomycin-resistant Enterococcus faecalis W4138 assessed as growth inhibition after 18 hrs by agar dilution method; details: W4138, 18 h
Staphylococcus aureus [19] = experiment: Antibacterial activity against thiostrepton-resistant Staphylococcus aureus ATCC 6538P assessed as growth inhibition after 18 hrs by agar dilution method
[20] = tested on: Staphylococcus epidermidis; experiment: Antibacterial activity against methicillin-sensitive Staphylococcus epidermidis 09-9 assessed as growth inhibition after 18 hrs by agar dilution method; details: 09-9, 18 h

| SMILES | MIC (Morganella morganii) [µg/mL] | MIC (Pseudomonas aeruginosa) [µg/mL] | MIC (Klebsiella pneumoniae [1]) [µg/mL] | MIC (Klebsiella pneumoniae [2]) [µg/mL] | MIC (Escherichia coli [3]) [µg/mL] | MIC (Escherichia coli [4]) [µg/mL] | MIC (Enterococcus faecium [5]) [µg/mL] | MIC (Enterococcus faecium [6]) [µg/mL] | MIC (Enterococcus faecalis [7]) [µg/mL] | MIC (Enterococcus faecalis [8]) [µg/mL] | MIC (Enterococcus faecalis [9]) [µg/mL] | MIC [10] [µg/mL] | MIC (Staphylococcus aureus [11]) [µg/mL] | MIC (Staphylococcus aureus [12]) [µg/mL] | MIC (Staphylococcus aureus [13]) [µg/mL] | MIC (Staphylococcus aureus [14]) [µg/mL] | MIC (Staphylococcus aureus [15]) [µg/mL] | MIC [16] [µg/mL] | MIC (Enterococcus faecalis [17]) [µg/mL] | MIC (Enterococcus faecalis [18]) [µg/mL] | other results |
| --- | --- | --- | --- | --- | --- | --- | --- | --- | --- | --- | --- | --- | --- | --- | --- | --- | --- | --- | --- | --- | --- |
| Cc1onc(-c2ccccc2)c1C(=O)N[C@@H]1C(=O)N2[C@@H]1SC(C)(C)[C@@H]2C(=O)O [OXACILLIN] | 256 (≈ 638 µM) | > 256 | > 256 | > 256 | > 256 | > 256 | > 256 | > 256 | > 256 | > 256 | 4 (≈ 9.96 µM) | > 256 | > 256 | > 256 | > 256 | 0.5 (≈ 1.25 µM) | 0.5 (≈ 1.25 µM) | > 256 |  |  |  |
| CC[C@@H]1[C@@H](C)O[C@@](OC)([C@@H](C)[C@H](O)[C@H](C)[C@H]2OC(=O)/C=C/C=C/[C@H](C)[C@@H]([C@@H](C)[C@@H](O)[C@H](C)[C@@]3(OC)C[C@@H](O[C@H]4C[C@H](O)[C@H](O)[C@H](C)O4)[C@H](C)[C@@H](C)O3)OC(=O)/C=C/C=C/[C@@H]2C)C[C@H]1O[C@H]1C[C@H](O)[C@H](O)[C@H](C)O1 | > 128 | > 128 | > 128 | > 128 | > 128 | > 128 | 64 (≈ 61.6 µM) | 64 (≈ 61.6 µM) | 64 (≈ 61.6 µM) | 64 (≈ 61.6 µM) | 64 (≈ 61.6 µM) | 64 (≈ 61.6 µM) | 16 (≈ 15.4 µM) | 32 (≈ 30.8 µM) | 32 (≈ 30.8 µM) | 32 (≈ 30.8 µM) | 32 (≈ 30.8 µM) | 64 (≈ 61.6 µM) | > 128 | 64 (≈ 61.6 µM) | MIC (Micrococcus luteus): 128 µg/mL (≈ 123 µM); MIC (Staphylococcus aureus [19]): > 128 µg/mL |
| CC[C@@H]1[C@@H](C)O[C@@](OC)([C@@H](C)[C@H](O)[C@H](C)[C@H]2OC(=O)/C=C/C=C/[C@H](C)[C@@H]([C@@H](C)[C@@H](O)[C@H](C)[C@@]3(OC)C[C@@H](O[C@H]4C[C@H](O)[C@H](O)[C@H](C)O4)[C@H](CC)[C@@H](C)O3)OC(=O)/C=C/C=C/[C@@H]2C)C[C@H]1O[C@H]1C[C@H](O)[C@H](O)[C@H](C)O1 | > 256 | > 256 | > 256 | > 256 | > 256 | > 256 | 32 (≈ 30.4 µM) |  |  |  |  |  |  |  |  |  |  |  |  |  |  |
| CC[C@@H]1[C@@H](C)O[C@@](O)([C@@H](C)[C@H](O)[C@H](C)[C@H]2OC(=O)/C=C/C=C/[C@H](C)[C@@H]([C@@H](C)[C@@H](O)[C@H](C)[C@@]3(O)C[C@@H](O[C@H]4C[C@H](O)[C@H](O)[C@H](C)O4)[C@H](C)[C@@H](C)O3)OC(=O)/C=C/C=C/[C@@H]2C)C[C@H]1O[C@H]1C[C@H](O)[C@H](O)[C@H](C)O1 | > 64 | > 64 | > 64 | > 64 | > 64 | > 64 | > 64 | 2 (≈ 1.98 µM) | 2 (≈ 1.98 µM) | 16 (≈ 15.8 µM) | 2 (≈ 1.98 µM) | 4 (≈ 3.96 µM) | 2 (≈ 1.98 µM) | 2 (≈ 1.98 µM) | 2 (≈ 1.98 µM) | 2 (≈ 1.98 µM) | 2 (≈ 1.98 µM) | 4 (≈ 3.96 µM) | 2 (≈ 1.98 µM) | 4 (≈ 3.96 µM) | MIC (Micrococcus luteus): 2 µg/mL (≈ 1.98 µM); MIC (Staphylococcus aureus [19]): 2 µg/mL (≈ 1.98 µM) |
| CN[C@H](CC(C)C)C(=O)N[C@H]1C(=O)N[C@@H](CC(N)=O)C(=O)N[C@H]2C(=O)N[C@H]3C(=O)N[C@H](C(=O)N[C@H](C(=O)O)c4cc(O)cc(O)c4-c4cc3ccc4O)[C@H](O)c3ccc(c(Cl)c3)Oc3cc2cc(c3O[C@@H]2O[C@H](CO)[C@@H](O)[C@H](O)[C@H]2O[C@H]2C[C@](C)(N)[C@H](O)[C@H](C)O2)Oc2ccc(cc2Cl)[C@H]1O [VANCOMYCIN] |  |  |  |  |  |  |  |  | 4 (≈ 2.76 µM) | 1 (≈ 0.69 µM) | 1 (≈ 0.69 µM) |  |  |  |  |  |  | 0.5 (≈ 0.345 µM) | > 256 | 4 (≈ 2.76 µM) | MIC [20]: 0.5 µg/mL (≈ 0.345 µM) |
| CC[C@H]1OC(=O)[C@H](C)[C@@H](O[C@H]2C[C@@](C)(OC)[C@@H](O)[C@H](C)O2)[C@H](C)[C@@H](O[C@@H]2O[C@H](C)C[C@H](N(C)C)[C@H]2O)[C@](C)(O)C[C@@H](C)CN(C)[C@H](C)[C@@H](O)[C@]1(C)O [AZITHROMYCIN] | 64 (≈ 85.4 µM) | 256 (≈ 342 µM) | 64 (≈ 85.4 µM) | 64 (≈ 85.4 µM) | > 256 | 64 (≈ 85.4 µM) | > 256 | > 256 | > 256 | > 256 | 8 (≈ 10.7 µM) | > 256 | > 256 | > 256 | > 256 | 2 (≈ 2.67 µM) | 2 (≈ 2.67 µM) | > 256 | > 256 | > 256 | MIC (Micrococcus luteus): 2 µg/mL (≈ 2.67 µM); MIC (Staphylococcus aureus [19]): > 256 µg/mL |
| CC[C@H]1OC(=O)[C@H](C)[C@@H](O[C@H]2C[C@@](C)(OC)[C@@H](O)[C@H](C)O2)[C@H](C)[C@@H](O[C@@H]2O[C@H](C)C[C@H](N(C)C)[C@H]2O)[C@](C)(O)C[C@@H](C)C(=O)[C@H](C)[C@@H](O)[C@]1(C)O [ERYTHROMYCIN] | > 256 | > 256 | > 256 | > 256 | > 256 | > 256 | > 256 | 64 (≈ 87.2 µM) | 8 (≈ 10.9 µM) | 32 (≈ 43.6 µM) | 16 (≈ 21.8 µM) | > 256 |  | > 256 | 256 (≈ 349 µM) | 0.25 (≈ 0.341 µM) | 0.25 (≈ 0.341 µM) | 16 (≈ 21.8 µM) |  |  |  |
| CC[C@@H]1[C@@H](C)O[C@@](OC)([C@@H](C)[C@H](O)[C@H](C)[C@H]2OC(=O)/C=C/C=C/[C@H](C)[C@@H]([C@@H](C)[C@@H](O)[C@H](C)[C@@]3(O)C[C@@H](O[C@H]4C[C@H](O)[C@H](O)[C@H](C)O4)[C@H](CC)[C@@H](C)O3)OC(=O)/C=C/C=C/[C@@H]2C)C[C@H]1O[C@H]1C[C@H](O)[C@H](O)[C@H](C)O1 | > 256 | > 256 | > 256 | > 256 | > 256 | > 256 | 2 (≈ 1.92 µM) | 2 (≈ 1.92 µM) | 1 (≈ 0.962 µM) | 2 (≈ 1.92 µM) | 32 (≈ 30.8 µM) | 2 (≈ 1.92 µM) | 1 (≈ 0.962 µM) | 2 (≈ 1.92 µM) | 2 (≈ 1.92 µM) | 2 (≈ 1.92 µM) | 2 (≈ 1.92 µM) | 2 (≈ 1.92 µM) | 1 (≈ 0.962 µM) | 2 (≈ 1.92 µM) | MIC (Micrococcus luteus): 2 µg/mL (≈ 1.92 µM); MIC [20]: 2 µg/mL (≈ 1.92 µM); MIC (Staphylococcus aureus [19]): 2 µg/mL (≈ 1.92 µM) |
| CC[C@@H]1[C@@H](C)OC([C@@H](C)[C@H](O)[C@H](C)[C@H]2OC(=O)/C=C/C=C/[C@H](C)[C@@H]([C@@H](C)[C@@H](O)[C@H](C)[C@@]3(O)C[C@@H](O[C@H]4C[C@H](O)[C@H](O)[C@H](C)O4)[C@H](CC)[C@@H](C)O3)OC(=O)/C=C/C=C/[C@@H]2C)=C[C@H]1O[C@H]1C[C@H](O)[C@H](O)[C@H](C)O1 | > 64 | > 64 | > 64 | > 64 | > 64 | > 64 | > 64 | 4 (≈ 3.97 µM) | 2 (≈ 1.99 µM) | 2 (≈ 1.99 µM) | 2 (≈ 1.99 µM) | > 64 | > 64 | 2 (≈ 1.99 µM) | 2 (≈ 1.99 µM) | 2 (≈ 1.99 µM) | 2 (≈ 1.99 µM) | > 64 | 4 (≈ 3.97 µM) | 4 (≈ 3.97 µM) | MIC (Micrococcus luteus): 2 µg/mL (≈ 1.99 µM); MIC (Staphylococcus aureus [19]): 4 µg/mL (≈ 3.97 µM) |
